Non-standard residues stand in square brackets, D forms with d. Residues, ends and D or L forms follow the SMILES beside them. ξ: configuration not given here. *: point of attachment. X1 = COC1=CC(=O)N(C(=O)C(O*)C(C)C)C1Cc1ccccc1; Trt = c1ccc(C(c2ccccc2)(c2ccccc2)*)cc1; ξNMe2Val = CC(C)C(C(=O)*)N(C)C; pGlu = O=C1CC[C@@H](C(=O)O)N1; NMeV = CN[CH](C(=O)O)C(C)C; Cbz = O=C(OCc1ccccc1)*; Boc = CC(C)(C)OC(=O)*; azaGly = NNC(=O)O
Row | melting point | SMILES
1 | 179 to 180 °C | CC(C)C[C@H](NC(=O)[C@@H](Cc1ccccc1)NC(=O)[C@H](Cc1ccc(O)cc1)NC(=O)[C@H](CO)NC(=O)[C@H](Cc1c[nH]c2ccccc12)NC(=O)[C@@H](Cc1ccccc1)NC(=O)[C@@H]1CCC(=O)N1)C(=O)N[C@@H](CCCNC(=N)N)C(=O)N1CCC[C@H]1C(=O)NNC(N)=O ([pGlu][dF]WSY[dF]LRP[azaGly]-NH2)
2 | 221 to 222 °C | COC(=O)C(CCN1C(=O)c2ccccc2C1=O)Oc1c(Br)cc(-c2c3ccccc3c(Br)c3sc4ccccc4c23)cc1Br (centres undefined)
3 | 238 to 240 °C | COC(=O)C(Cc1ccccc1)NC(=O)C(Cc1ccccc1)NC(=O)C(CC(N)=O)NC(=O)C(CCCCNC(=O)OC(C)(C)C)NC(=O)C(CSC(c1ccccc1)(c1ccccc1)c1ccccc1)NC(=O)CNC(=O)C(C)NC(=O)CNC(=O)CNC(=O)C(CC(C)C)NC(=O)OC(C)(C)C (centres undefined) (Boc-LGGAGC(Trt)K(Boc)NFF-OMe; configuration not given here)
4 | 179 to 181 °C | CC(C)C[C@H](NC(=O)[C@H](Cc1c[nH]cn1)NC(=O)[C@H](Cc1cccc2ccccc12)NC(=O)OCc1ccccc1)[C@@H](O)CC(=O)NN1CCN(c2cccc(C(F)(F)F)c2)CC1
5 | 105 to 107 °C | Cc1cc(C(F)(F)F)ccc1Cn1nc(OC(C)C)cc1CCCOc1ncccc1CC(=O)O
6 | 148 to 150 °C | COc1cc(OC)c(/C=C/C(c2ccc(OC)c(NC(=O)C(C)(C)OC(C)=O)c2)S(=O)(=O)C(/C=C/c2c(OC)cc(OC)cc2OC)c2ccc(OC)c(NC(=O)C(C)(C)OC(C)=O)c2)c(OC)c1 (centres undefined)
7 | 114 to 115 °C | CCCCC(C)OC(=O)c1c(I)c(I)c(C(=O)OC(C)CCCC)c(I)c1I (centres undefined)
8 | 6 °C | CCSC(=O)N(CC(C)C)CC(C)C
9 | -5 °C | CC(C)=CCC/C(C)=C/CC/C(C)=C/CC/C=C(\C)CC/C=C(\C)CCC=C(C)C
10 | 34 to 35 °C | CCCCCCCCCCCCCCCCCCCCCCCCCC(C)=CCCC(C)=CCCC(C)=CCCC(C)=CCCC(C)=CCCC(C)=CCCC(C)=CCCC(C)=CCCC(C)=CCOC(=O)C1CCCCC1
11 | 106 to 110 °C | CCCCCCCCCCCCN(c1nc(NCC(O)C2CC(C)(C)NC(C)(C)C2)nc(NCC(O)C2CC(C)(C)NC(C)(C)C2)n1)c1nc(NCC(O)C2CC(C)(C)NC(C)(C)C2)nc(NCC(O)C2CC(C)(C)NC(C)(C)C2)n1 (centres undefined)
12 | 162 to 166 °C | CCOC(=O)OC1=C(c2c(C)cc(C)cc2C)C(=O)NC12CCN(N(C)C)CC2
13 | 58 to 59 °C | [C-]#[N+]C(C)C(=O)NCC1CC2CC(C1C)C2(C)C (centres undefined)
14 | 86 to 87 °C | O=C1C(COCc2ccccc2)N(Cc2ccccc2)CCN(Cc2ccccc2)C(COCc2ccccc2)C(=O)N(Cc2ccccc2)CCN1Cc1ccccc1 (centres undefined)
15 | 223 to 226 °C | O=P(Oc1c(Br)cc(Br)cc1Br)(Oc1c(Br)cc(Br)cc1Br)Oc1c(Br)cc(Br)cc1Br
16 | 182 to 185 °C | Cc1cc(CNC(=O)c2nc(N3CCOCC3)n(C)c(=O)c2O)ccc1F
17 | 96 °C | CC(=O)ON=NCc1ccc(C(=O)NCCCNC(=O)[C@@H]2CCCN2S(=O)(=O)c2ccc(Cl)c(COc3cccc4c(-n5ccnc5)cc(C)nc34)c2Cl)cc1
18 | 245 to 247 °C | COc1cc(C(=O)O)ccc1Cc1cn(C(C)=O)c2ccc(NC(=O)CC3CCCC3)cc12
19 | 94 to 96 °C | Brc1ccc2c(c1)C(CCCCCCCCCCn1c3ccccc3c3ccccc31)(CCCCCCCCCCn1c3ccccc3c3ccccc31)c1cc(Br)ccc1-2
20 | 146 °C | CC(C)[Si](OC(=O)Cc1cc(I)c(Oc2cc(I)c(O)c(I)c2)c(I)c1)(C(C)C)C(C)C

Row | melting point | SMILES
21 | 192 to 193 °C | Cc1ccc(S(=O)(=O)N2CCN(S(=O)(=O)c3ccc(C)cc3)CC(Cc3ccc(O)cc3)N(S(=O)(=O)c3ccc(C)cc3)N(S(=O)(=O)c3ccc(C)cc3)CC2)cc1 (centres undefined)
22 | 128 °C | Oc1ccccc1N1CCOCC1
23 | -40 °C | CC(O)CN(C)C (centres undefined)
24 | 55 to 58 °C | Nc1cc(C(F)(F)C(F)(F)OC(F)(F)C(F)(OC(F)(F)C(F)(F)OC(F)(C(F)(F)F)C(F)(F)OC(F)(F)C(F)(F)c2ccc(O)c(N)c2)C(F)(F)F)ccc1O (centres undefined)
25 | 88 to 89 °C | CCCCCCCCCCCCCCCCCCN(CCCCCCCCCCCCCCCCCC)C(=O)c1cc(NS(=O)(=O)c2cnc(Cl)c(Cl)c2)c2ccccc2c1O
26 | 72 to 74 °C | CCCCCCCCCCCCCCCC(=O)C(O)[C@](O)(C(=O)CCCCCCCCCCCCCCC)[C@@H](O)[C@H](O)[C@@](O)(C(=O)CCCCCCCCCCCCCCC)C(O)C(=O)CCCCCCCCCCCCCCC (some centres undefined)
27 | 221 to 223 °C | COC(=O)C(CC(C)C)NC(=O)C(Cc1ccccc1)NC(=O)C(Cc1ccc(O)cc1)NC(=O)C(CO)NC(=O)C(Cc1c[nH]c2ccccc12)NC(=O)OCc1ccccc1 (centres undefined) (Cbz-WSYFL-OMe; configuration not given here)
28 | 109 °C | C=CC(CC(O)C(CC1CCCCC1)NC(=O)C(Cc1c[nH]cn1)NC(=O)C(Cc1ccccc1)NC(=O)CN(CCNC(=O)OC(C)(C)C)C(=O)OC(C)(C)C)C(C)C (centres undefined)
29 | 64 °C | F[Si](c1ccccc1)(c1ccccc1)c1ccccc1
30 | 122 to 126 °C | CCCc1nn(C)c(C(=O)O)c1[N+](=O)[O-]
31 | 188 to 192 °C | CC(C)[C@H](NC(=O)OCc1ccccn1)C(=O)N[C@@H](Cc1ccccc1)[C@H](O)[C@@H](O)[C@H](Cc1ccccc1)NC(=O)[C@@H](NC(=O)N(C)Cc1csc(N)n1)C(C)C
32 | 287 to 292 °C | COc1cccc(Sc2cc3c(cc2Sc2cccc(OC)c2)C(=O)c2c(c(O)c4cc(Sc5cccc(OC)c5)c(Sc5cccc(OC)c5)cc4c2O)C3=O)c1
33 | 122 to 125 °C | Cc1cc(F)c(-n2nc(C(F)(F)F)nc2NC(=O)C(F)(F)F)cc1C(SC(c1cc(-n2nc(C(F)(F)F)nc2NC(=O)C(F)(F)F)c(F)cc1C)C(F)(F)F)C(F)(F)F (centres undefined)
34 | 52 °C | Cc1cc(C(C)(C)C)c(O)c(C)c1CCCCCCCCCCCCCCCCCCCOCCCCCCCCCCCCCCCCCCCc1c(C)cc(C(C)(C)C)c(O)c1C
35 | 273 to 277 °C | CC(c1cc(C(C)(C)C)cc(C(C)(C)C)c1O)c1cc(C(C)(C)C)cc(C(C)(C)C)c1Op1oc2c(C(C)(C)C)cc(C(C)(C)C)cc2c2cc(C(C)(C)C)cc(C(C)(C)C)c2o1 (centres undefined)
36 | 135 to 137 °C | CCCCNC1=CCC(C)n2c1ncc(C(=O)O)c2=O (centres undefined)
37 | > 220 °C | CC(C)C[C@H](NC(=O)[C@H](C)NC(=O)[C@H](C)NC(=O)OC(C)(C)C)C(=O)NCCNc1ccc(NCCNC(=O)[C@H](CC(C)C)NC(=O)[C@H](C)NC(=O)[C@H](C)NC(=O)OC(C)(C)C)c2c1C(=O)c1c(O)ccc(O)c1C2=O
38 | 142 to 144 °C | Cc1cccc(-c2cc3ccccc3c(Cl)n2)n1
39 | 176 to 178 °C | CCc1nc(OC)c(NC(=O)N2CCN(c3cc(C)cc(C)c3)CC2)cc1C(=O)NC(C)C(=O)Nc1cc(CO)cc(Nc2c3ccccc3nc3c(C)c(C)ccc23)c1 (centres undefined)
40 | 209 to 211 °C | CCOC(=O)C=Cc1cc2cc(OC)ccc2[nH]c1=O

Row | melting point | SMILES
41 | 58 °C | C[C@H](CCN(CCCCNC(=O)[C@@H](NC(=O)CCCCCCNC(=NC(=O)OCc1ccccc1)NC(=O)OCc1ccccc1)O[C@@H](C)c1ccc2ccccc2c1)C(=O)OCc1ccccc1)NC(=O)OCc1ccccc1
42 | 86 to 88 °C | CC(C)(C)OC(=O)N(CNCCNC(=O)CCOCC(COCCC(=O)NCCNCN(C(=O)OC(C)(C)C)C(=O)OC(C)(C)C)(COCCC(=O)NCCNCN(C(=O)OC(C)(C)C)C(=O)OC(C)(C)C)NC(=O)OCc1ccccc1)C(=O)OC(C)(C)C
43 | 82 to 84 °C | CCCCCCCCCCCCCCCC(=O)OCC(CSCC(NC(=O)OCc1cccc2c1Cc1ccccc1-2)C(=O)O)OC(=O)CCCCCCCCCCCCCCC (mixture of isomers)
44 | 101 to 104 °C | CC(=O)OCC(CNC(=O)c1c(I)c(NC(=O)C2CCCO2)c(I)c(C(=O)NCC(COC(C)=O)OC(C)=O)c1I)OC(C)=O (centres undefined)
45 | 178 to 181 °C | O=S(=O)(C(/C=C/c1c(F)c(F)c(F)c(F)c1F)c1ccc(I)cc1)C(/C=C/c1c(F)c(F)c(F)c(F)c1F)c1ccc(I)cc1 (centres undefined)
46 | 79 to 80 °C | CCCCOC(=O)c1ccc(=O)[nH]n1
47 | 171 to 173 °C | [C-]#[N+]C1(C)CN(C(=O)Nc2ccc(C(F)(F)F)cc2)N=C1c1ccc(Cl)cc1 (centres undefined)
48 | 151 to 156 °C | CC1(C)CC(C(O)CNc2nc(NCc3ccc(CNc4nc(NCC(O)C5CC(C)(C)NC(C)(C)C5)nc(NCC(O)C5CC(C)(C)NC(C)(C)C5)n4)cc3)nc(NCC(O)C3CC(C)(C)NC(C)(C)C3)n2)CC(C)(C)N1 (centres undefined)
49 | 36 °C | C=CC(=O)OCCCCCCOc1ccc(C(=O)Oc2ccc(OC(=O)c3ccc(OCCCCCCOC(=O)C=C)cc3)c(C(=O)OCCCCCCCCOC(=O)c3ccco3)c2)cc1
50 | 86.5 °C | CCCCCCCCCCOc1cc2c(O)c(C(=O)OCC)cnc2cc1OCC
51 | 85 to 87 °C | COC(=O)COc1cc(F)ccc1[N+](=O)[O-]
52 | 132 to 135 °C | Cc1ccc(C(=O)Oc2ccc3c(OC(=O)c4ccc(C)c(OCc5ccccc5)c4)c4ccccc4cc3c2OC(=O)c2ccc(C)c(OCc3ccccc3)c2)cc1OCc1ccccc1
53 | 135 °C | Cc1ccc(C(c2ccc(C)c(C(OS(C)(=O)=O)(C(F)(F)F)C(F)(F)F)c2)(C(F)(F)F)C(F)(F)F)cc1C(OS(C)(=O)=O)(C(F)(F)F)C(F)(F)F
54 | 80 to 82 °C | [C-]#[N+]CC(=O)N(c1ccccc1)C(C)C
55 | 163 to 164 °C | CC(C)(O)CCOc1c(-c2ccc(S(N)(=O)=O)cc2)cnn(-c2ccc(F)cc2)c1=O
56 | 127 to 129 °C | CCOC(=O)COc1cccc2c1CCc1sc(S(=O)CC(c3ccccc3)c3ccccc3)nc1-2 (centres undefined)
57 | 129 to 130 °C | COc1cc2c(cc1I)C(=O)CC2
58 | 64.7 to 100 °C | C=C(C)[C@@H]1CC[C@]2(C(=O)N[C@@H]3C[C@H](C(=O)OCc4ccccc4)C3(C)C)CC[C@]3(C)[C@H](CC[C@@H]4[C@@]5(C)CC[C@H](OC(=O)CC(C)(C)C(=O)O)C(C)(C)[C@@H]5CC[C@]43C)[C@@H]12

Row | SMILES | melting point
59 | COC1=CC(=O)N(C(=O)C(OC(=O)C2CCCN2C(=O)C2CCCN2C(=O)C(C(C)C)N(C)C(=O)C(NC(=O)C(C(C)C)N(C)C)C(C)C)C(C)C)C1Cc1ccccc1 (centres undefined) (ξNMe2Val-V[NMeV]PP-X1; configuration not given here) | 143 to 148 °C

Reference: a melting point compilation (Tetko et al.)
